Laboratory results reported in ChEMBL document CHEMBL1159126, “Salicylanilide carbamates: antitubercular agents active against multidrug-resistant Mycobacterium tuberculosis strains” (Bioorg Med Chem, 2010).
≈ marks a conversion by molar mass, not a printed value.

Experiments:
Mycobacterium avium [1] = assay: Antimycobacterial activity against Mycobacterium avium 330/88 after 21 days by micromethod; format: functional; details: 330/88, 504 h
Mycobacterium kansasii [2] = assay: Antimycobacterial activity against Mycobacterium kansasii 235/80 after 14 days by micromethod; format: functional; details: 235/80, 336 h
Mycobacterium kansasii [3] = assay: Antimycobacterial activity against Mycobacterium kansasii 235/80 after 21 days by micromethod; format: functional; details: 235/80, 504 h
[4] = Partition coefficient, log P of the compound; format: physicochemical; details: octanol/water
Mycobacterium kansasii [5] = assay: Antimycobacterial activity against Mycobacterium kansasii 6509/96 after 14 days by micromethod; format: functional; details: 6509/96, 336 h
Mycobacterium kansasii [6] = assay: Antimycobacterial activity against Mycobacterium kansasii 6509/96 after 21 days by micromethod; format: functional; details: 6509/96, 504 h
Mycobacterium avium [7] = assay: Antimycobacterial activity against Mycobacterium avium 330/88 after 14 days by micromethod; format: functional; details: 330/88, 336 h
[8] = test system: Mycobacterium tuberculosis; assay: microbe, parasite or virus in culture; details: 331/88, 336 h
Description: Antimycobacterial activity against Mycobacterium tuberculosis 331/88 after 14 days by micromethod

[9] = test system: Mycobacterium tuberculosis; assay: microbe, parasite or virus in culture; details: 331/88, 504 h
Description: Antimycobacterial activity against Mycobacterium tuberculosis 331/88 after 21 days by micromethod

[10] = Toxicity against human HCT8 cells after 72 hrs by XTT assay; format: cell-based, HCT-8
[11] = Stability in 100 mM phosphate buffer at pH 3 assessed as compound degradation by HPLC; format: physicochemical
[12] = Stability in 100 mM phosphate buffer at pH 4 assessed as compound degradation by HPLC; format: physicochemical
[13] = Stability in 100 mM phosphate buffer at pH 5 assessed as compound degradation by HPLC; format: physicochemical
[14] = Stability in 100 mM phosphate buffer at pH 6 assessed as compound degradation by HPLC; format: physicochemical
[15] = Stability in 100 mM phosphate buffer at pH 7 assessed as compound degradation by HPLC; format: physicochemical
[16] = Stability in 100 mM phosphate buffer at pH 7.4 assessed as compound degradation by HPLC; format: physicochemical
[17] = Stability in 100 mM phosphate buffer at pH 8 assessed as compound degradation by HPLC; format: physicochemical

SMILES | MIC (Mycobacterium avium [1]) [µM] | MIC (Mycobacterium kansasii [2]) [µM] | MIC (Mycobacterium kansasii [3]) [µM] | logP [4] | MIC (Mycobacterium kansasii [5]) [µM] | MIC (Mycobacterium kansasii [6]) [µM] | MIC (Mycobacterium avium [7]) [µM] | MIC [8] [µM] | MIC [9] [µM] | EC50 at 72 h [10] [µM] | Stability [11] | Stability [12] | Stability [13] | half-life [14] [h] | half-life [15] [h] | half-life [16] [h] | half-life [17] [h]
CCCCCCCCCNC(=O)Oc1ccc(Cl)cc1C(=O)Nc1cccc(Cl)c1 | 4 (≈ 1.81 µg/mL) | 4 (≈ 1.81 µg/mL) | 4 (≈ 1.81 µg/mL) | 6.78 | 4 (≈ 1.81 µg/mL) | 4 (≈ 1.81 µg/mL) | 2 (≈ 0.903 µg/mL) | 1 (≈ 0.451 µg/mL) | 2 (≈ 0.903 µg/mL) |  |  |  |  |  |  |  | 
CCCCCCCCCCNC(=O)Oc1ccc(Cl)cc1C(=O)Nc1cccc(Cl)c1 | 8 (≈ 3.72 µg/mL) | 8 (≈ 3.72 µg/mL) | 8 (≈ 3.72 µg/mL) | 7.19 | 8 (≈ 3.72 µg/mL) | 8 (≈ 3.72 µg/mL) | 8 (≈ 3.72 µg/mL) | 1 (≈ 0.465 µg/mL) | 2 (≈ 0.931 µg/mL) |  |  |  |  |  |  |  | 
CCCCCCCCCCCNC(=O)Oc1ccc(Cl)cc1C(=O)Nc1ccc(Cl)cc1 | 8 (≈ 3.84 µg/mL) | 8 (≈ 3.84 µg/mL) | 8 (≈ 3.84 µg/mL) | 7.61 | 8 (≈ 3.84 µg/mL) | 8 (≈ 3.84 µg/mL) | 8 (≈ 3.84 µg/mL) | 2 (≈ 0.959 µg/mL) | 2 (≈ 0.959 µg/mL) |  |  |  |  |  |  |  | 
CCNC(=O)Oc1ccc(Cl)cc1C(=O)Nc1cccc(Cl)c1 | 8 (≈ 2.83 µg/mL) | 8 (≈ 2.83 µg/mL) | 8 (≈ 2.83 µg/mL) | 3.79 | 8 (≈ 2.83 µg/mL) | 8 (≈ 2.83 µg/mL) | 8 (≈ 2.83 µg/mL) | 2 (≈ 0.706 µg/mL) | 2 (≈ 0.706 µg/mL) |  |  |  |  |  |  |  | 
CCCCNC(=O)Oc1ccc(Cl)cc1C(=O)Nc1cccc(Cl)c1 | 16 (≈ 6.1 µg/mL) | 16 (≈ 6.1 µg/mL) | 16 (≈ 6.1 µg/mL) | 4.69 | 8 (≈ 3.05 µg/mL) | 16 (≈ 6.1 µg/mL) | 8 (≈ 3.05 µg/mL) | 2 (≈ 0.763 µg/mL) | 4 (≈ 1.53 µg/mL) |  |  |  |  |  |  |  | 
CCCCCCNC(=O)Oc1ccc(Cl)cc1C(=O)Nc1ccc(Cl)c(Cl)c1 | 8 (≈ 3.55 µg/mL) | 2 (≈ 0.888 µg/mL) | 2 (≈ 0.888 µg/mL) | 6.08 | 1 (≈ 0.444 µg/mL) | 2 (≈ 0.888 µg/mL) | 4 (≈ 1.78 µg/mL) | 0.5 (≈ 0.222 µg/mL) | 0.5 (≈ 0.222 µg/mL) | 27.9 | Stable | Stable | Stable | 118 | 64 | 43 | 5
CCCCCNC(=O)Oc1ccc(Cl)cc1C(=O)Nc1cccc(Cl)c1 | 8 (≈ 3.16 µg/mL) | 8 (≈ 3.16 µg/mL) | 8 (≈ 3.16 µg/mL) | 5.11 | 8 (≈ 3.16 µg/mL) | 8 (≈ 3.16 µg/mL) | 8 (≈ 3.16 µg/mL) | 2 (≈ 0.791 µg/mL) | 4 (≈ 1.58 µg/mL) |  |  |  |  |  |  |  | 
CCNC(=O)Oc1ccc(Cl)cc1C(=O)Nc1ccc(Cl)c(Cl)c1 | 32 (≈ 12.4 µg/mL) | 2 (≈ 0.775 µg/mL) | 4 (≈ 1.55 µg/mL) | 4.35 | 2 (≈ 0.775 µg/mL) | 4 (≈ 1.55 µg/mL) | 16 (≈ 6.2 µg/mL) | 0.5 (≈ 0.194 µg/mL) | 1 (≈ 0.388 µg/mL) | 31 |  |  |  |  |  |  | 
CCCCNC(=O)Oc1ccc(Cl)cc1C(=O)Nc1ccc(Cl)c(Cl)c1 | 16 (≈ 6.65 µg/mL) | 2 (≈ 0.831 µg/mL) | 2 (≈ 0.831 µg/mL) | 5.25 | 2 (≈ 0.831 µg/mL) | 4 (≈ 1.66 µg/mL) | 8 (≈ 3.33 µg/mL) | 0.5 (≈ 0.208 µg/mL) | 1 (≈ 0.416 µg/mL) | 38 |  |  |  |  |  |  | 
CCCCCNC(=O)Oc1ccc(Cl)cc1C(=O)Nc1ccc(Cl)c(Cl)c1 | 16 (≈ 6.88 µg/mL) | 2 (≈ 0.859 µg/mL) | 2 (≈ 0.859 µg/mL) | 5.67 | 2 (≈ 0.859 µg/mL) | 4 (≈ 1.72 µg/mL) | 8 (≈ 3.44 µg/mL) | 0.5 (≈ 0.215 µg/mL) | 0.5 (≈ 0.215 µg/mL) | 40 |  |  |  |  |  |  | 
CCNC(=O)Oc1ccc(Cl)cc1C(=O)Nc1ccc(Cl)cc1 | 8 (≈ 2.83 µg/mL) | 4 (≈ 1.41 µg/mL) | 8 (≈ 2.83 µg/mL) | 3.79 | 4 (≈ 1.41 µg/mL) | 8 (≈ 2.83 µg/mL) | 8 (≈ 2.83 µg/mL) | 1 (≈ 0.353 µg/mL) | 2 (≈ 0.706 µg/mL) |  |  |  |  |  |  |  | 
CCCCCNC(=O)Oc1ccc(Cl)cc1C(=O)Nc1ccc(Cl)cc1 | 8 (≈ 3.16 µg/mL) | 2 (≈ 0.791 µg/mL) | 4 (≈ 1.58 µg/mL) | 5.11 | 4 (≈ 1.58 µg/mL) | 4 (≈ 1.58 µg/mL) | 8 (≈ 3.16 µg/mL) | 0.5 (≈ 0.198 µg/mL) | 0.5 (≈ 0.198 µg/mL) | 17.4 |  |  |  |  |  |  | 
CCCCCCNC(=O)Oc1ccc(Cl)cc1C(=O)Nc1ccc(Cl)cc1 | 8 (≈ 3.27 µg/mL) | 4 (≈ 1.64 µg/mL) | 4 (≈ 1.64 µg/mL) | 5.53 | 2 (≈ 0.819 µg/mL) | 4 (≈ 1.64 µg/mL) | 4 (≈ 1.64 µg/mL) | 1 (≈ 0.409 µg/mL) | 2 (≈ 0.819 µg/mL) |  |  |  |  |  |  |  | 
CCCCCCCCCCCNC(=O)Oc1ccc(Cl)cc1C(=O)Nc1ccc(Cl)c(Cl)c1 | 16 (≈ 8.22 µg/mL) | 4 (≈ 2.06 µg/mL) | 4 (≈ 2.06 µg/mL) | 8.17 | 4 (≈ 2.06 µg/mL) | 4 (≈ 2.06 µg/mL) | 16 (≈ 8.22 µg/mL) | 2 (≈ 1.03 µg/mL) | 2 (≈ 1.03 µg/mL) |  |  |  |  |  |  |  | 
